Patent US10105357B2, “Indication of antibiotic drugs for preparation of cancer inhibition pharmaceutical composition” (LAUNX BIOMEDICAL CO., LTD., priority 2014, dated 2018)
Structures can show the parent of a compound that is named as a salt.

Columns and labels:
Format in all cases: cell-based, human
[1] = tested on: A375 (Amelanotic Melanoma); experiment: Cell viability analysis, skin cancer A375
[2] = tested on: HepG2 (Hepatocellular Carcinoma); experiment: Cell viability analysis, hepatic cancer HepG2; settings: for viability at 10 µM: Homo sapiens, HepG2, 72 h, read-out: cell viability (survival rate), HepG2, drug 10 μM, 72 hours, WST-1, OD450 nm
[3] = tested on: A549 (Lung Adenocarcinoma); experiment: Cell viability analysis, lung cancer A549; settings: for viability at 10 µM: Homo sapiens, A549, 72 h, read-out: cell viability (survival rate), A549, drug 10 μM, 72 hours, WST-1, OD450 nm
[4] = tested on: AGS (Gastric Adenocarcinoma); experiment: Cell viability analysis, gastric cancer AGS; settings: for viability at 10 µM: Homo sapiens, 72 h, read-out: cell viability (survival rate), AGS, drug 10 μM, 72 hours, WST-1, OD450 nm
[5] = tested on: HeLa (Cervix Adenocarcinoma); experiment: Cell viability analysis, cervical cancer HeLa; settings: for viability at 10 µM: Homo sapiens, HeLa, 72 h, read-out: cell viability (survival rate), HeLa, drug 10 μM, 72 hours, WST-1, OD450 nm
[6] = tested on: LoVo (Colorectal Adenocarcinoma); experiment: Cell viability analysis, colon cancer LoVo; settings: for viability at 10 µM: Homo sapiens, LoVo, 72 h, read-out: cell viability (survival rate), LoVo, drug 10 μM, 72 hours, WST-1, OD450 nm
[7] = tested on: HI650 (Lung Adenocarcinoma); experiment: Cell viability analysis, lung cancer HI650; settings: for viability at 10 µM: Homo sapiens, NCI-H1650, 72 h, read-out: cell viability (survival rate), H1650, drug 10 μM, 72 hours, WST-1, OD450 nm
cancer cell lines = experiment: Cell viability analysis (WST-1) on cancer cell lines; settings: drug 10 μM, 72 hours; for inhibition effect on different cancer cell lines: WST-1, Table 3
[8] = tested on: HL-60 (Acute Promyelocytic Leukemia); experiment: Cell viability analysis, leukemia HL-60; settings: for viability at 10 µM: Homo sapiens, HL-60, 72 h, read-out: cell viability (survival rate), HL-60, drug 10 μM, 72 hours, WST-1, OD450 nm
[9] = tested on: TSGH-8301 (Urinary Bladder Carcinoma); experiment: Cell viability analysis, bladder cancer TSGH-8301; settings: for viability at 10 µM: Homo sapiens, 72 h, read-out: cell viability (survival rate), TSGH, drug 10 μM, 72 hours, WST-1, OD450 nm
[10] = tested on: MKN-45 (Gastric Adenocarcinoma); experiment: Cell viability analysis, gastric cancer MKN-45; settings: for viability at 10 µM: Homo sapiens, MKN-45, 72 h, read-out: cell viability (survival rate), MKN-45, drug 10 μM, 72 hours, WST-1, OD450 nm
[11] = tested on: MCF7 (Mammary Gland, Adenocarcinoma); experiment: Cell viability analysis, breast cancer MCF7; settings: for viability at 10 µM: Homo sapiens, MCF7, 72 h, read-out: cell viability (survival rate), MCF7, drug 10 μM, 72 hours, WST-1, OD450 nm
[12] = tested on: PC3 (p53−) (Prostate Adenocarcinoma); experiment: Cell viability analysis, prostate cancer PC3; settings: human, 72 h, 10 µM
[13] = drug 10 μM, 72 hours, WST-1, OD450 nm

Colistin Sulfate
cell viability (survival rate), A375 [1, 13]: 36.1
cell viability (survival rate), HepG2 [2, 13]: 77.7
cell viability (survival rate), A549 [3, 13]: 97.6
cell viability (survival rate), AGS [4, 13]: 26.1
cell viability (survival rate), HeLa [5, 13]: 84.3
cell viability (survival rate), LoVo [6, 13]: 92.0
cell viability (survival rate), H1650 [7, 13]: 62.2
inhibition effect on different cancer cell lines (cancer cell lines): significant inhibition effect
cell viability (survival rate), HL-60 [8, 13]: 108.9
cell viability (survival rate), TSGH [9, 13]: 36.2

CN(C)CCC(c1ccc(Br)cc1)c1ccccn1 (centres unmarked) [Brompheniramine]
viability at 10 µM [10]: 85.8%
viability at 10 µM [2]: 95.7%
viability at 10 µM [3]: 109%
viability at 10 µM [4]: 121%
viability at 10 µM [5]: 111%
viability at 10 µM [6]: 98.9%
viability at 10 µM [7]: 83%
inhibition effect on different cancer cell lines (cancer cell lines): significant inhibition effect
viability at 10 µM [8]: 122%
viability at 10 µM [11]: 75.8%
viability at 10 µM [9]: 97.9%

Cc1nccn1CC1CCc2c(c3ccccc3n2C)C1=O (centres unmarked) [Ondansetron hydrochloride (Zofran), Ondansetron hydrochloride]
inhibition effect on different cancer cell lines (cancer cell lines): significant inhibition effect

Dabigatran [BIBR-1048 (Dabigatran)]
inhibition effect on different cancer cell lines (cancer cell lines): significant inhibition effect

C[C@@H](O)[C@H]1C(=O)N2C(C(=O)O)=C(S[C@@H]3CN[C@H](CNS(N)(=O)=O)C3)[C@H](C)[C@H]12 [Doripenem Hydrate]
viability at 10 µM [10]: 111%
viability at 10 µM [2]: 106%
viability at 10 µM [3]: 70.9%
viability at 10 µM [4]: 66.5%
viability at 10 µM [5]: 122%
viability at 10 µM [6]: 95.2%
viability at 10 µM [7]: 78.5%
inhibition effect on different cancer cell lines (cancer cell lines): significant inhibition effect
viability at 10 µM [8]: 91.2%
viability at 10 µM [11]: 99.8%
viability at 10 µM [9]: 79.9%

CCn1cc(C(=O)O)c(=O)c2cc(F)c(N3CCN(C)CC3)cc21 [Pefloxacin mesylate]
inhibition effect on different cancer cell lines (cancer cell lines): significant inhibition effect

CCN[C@@H]1C[C@H](N)[C@@H](O[C@H]2OC(CN)=CC[C@H]2N)[C@H](O)[C@H]1O[C@H]1OC[C@](C)(O)[C@H](NC)[C@H]1O.CCN[C@@H]1C[C@H](N)[C@@H](O[C@H]2OC(CN)=CC[C@H]2N)[C@H](O)[C@H]1O[C@H]1OC[C@](C)(O)[C@H](NC)[C@H]1O.O=S(=O)(O)O.O=S(=O)(O)O.O=S(=O)(O)O.O=S(=O)(O)O.O=S(=O)(O)O [Netilmicin Sulfate]
Inhibitory effect on cancer cell line (cancer cell lines; WST-1, OD450 nm, Table 2: drugs which do not have significant inhibitory effect): 0
inhibition effect on different cancer cell lines (cancer cell lines): significant inhibition effect

CC1(C)[C@H](C(=O)[O-])N2C(=O)C[C@H]2S1(=O)=O.[Na+] [Sulbactam sodium (Unasyn), Sulbactam sodium]
inhibition effect on different cancer cell lines (cancer cell lines): significant inhibition effect

CC1(C)S[C@@H]2[C@H](NC(=O)[C@H](N)c3ccccc3)C(=O)N2[C@H]1C(=O)O [Ampicillin sodium]
cell viability (survival rate), MKN-45 ([10]; human, 72 h, 10 µM): 77.9
viability at 10 µM ([1]; Homo sapiens, A-375, 72 h, read-out: cell viability (survival rate), A375, drug 10 μM, 72 hours, WST-1, OD450 nm): 68.9%
viability at 10 µM [2]: 76.1%
cell viability (survival rate), A549 ([3]; human, 72 h, 10 µM): 102.6
viability at 10 µM [4]: 105%
viability at 10 µM [5]: 75.2%
cell viability (survival rate), PC3 [12]: 98.1
viability at 10 µM [6]: 88.9%
viability at 10 µM [7]: 53.5%
inhibition effect on different cancer cell lines (cancer cell lines): significant inhibition effect
cell viability (survival rate), MCF7 ([11]; human, 72 h, 10 µM): 99.1
viability at 10 µM [9]: 72%

CN(C/C=C/C#CC(C)(C)C)Cc1cccc2ccccc12 [Terbinafine hydrochloride (Lamisil), Terbinafine hydrochloride]
inhibition effect on different cancer cell lines (cancer cell lines): significant inhibition effect

CC(C)CN(C[C@@H](O)[C@H](Cc1ccccc1)NC(=O)O[C@H]1CO[C@H]2OCC[C@H]21)S(=O)(=O)c1ccc(N)cc1.CCO [Darunavir Ethanolate (Prezista), Darunavir Ethanolate]
inhibition effect on different cancer cell lines (cancer cell lines): significant inhibition effect

NC(=O)c1cnccn1 [Pyrazinamide (Pyrazinoic acid amide), Pyrazinamide]
inhibition effect on different cancer cell lines (cancer cell lines): significant inhibition effect
